Reference: PubChem BioAssay AID248 (DTP/NCI, 2004)
Several values for one entry are separate records, joined by “and”; a condition that tells them apart may be missing. Equal entries are not always repeated. Toxic doses and inconclusive results are not listed. No stated cut-off is given here; in the data, active means T/C of 150% or more; inactive means T/C below 125%.

Test system: L1210 leukemia ip in BDF1 mice, survival T/C
Experiment: NCI In Vivo Anticancer Drug Screen. Data for tumor model L1210 Leukemia (intraperitoneal) in B6D2F1 (BDF1) mice
Settings: endpoint: mean survival time, higher = longer survival
In short: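 Antitumor effect is assessed in tumor-bearing animals. Survival in the compound arm is compared with a vehicle-dosed control arm and expressed as their quotient.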

[1] = dose: 100.0 mg/kg/injection, schedule: Q01DX009 (ip), vehicle: saline
[2] = dose: 100.0 mg/kg/injection, schedule: Q04DX003 (ip), vehicle: saline
[3] = dose: 200.0 mg/kg/injection, schedule: Q01DX009 (ip), vehicle: saline
[4] = dose: 200.0 mg/kg/injection, schedule: Q04DX003 (ip), vehicle: saline
[5] = dose: 400.0 mg/kg/injection, schedule: Q01DX009 (ip), vehicle: saline
[6] = dose: 400.0 mg/kg/injection, schedule: Q04DX003 (ip), vehicle: saline
[7] = dose: 100.0 mg/kg/injection, schedule: Q01DX001 (ip), vehicle: saline
[8] = dose: 100.0 mg/kg/injection, schedule: Q01DX009 (ip), vehicle: Klucel (hydroxypropylcellulose) (HPC)
[9] = dose: 100.0 mg/kg/injection, schedule: Q04DX003 (ip), vehicle: saline with Tween-80
[10] = dose: 200.0 mg/kg/injection, schedule: Q01DX001 (ip), vehicle: saline
[11] = dose: 200.0 mg/kg/injection, schedule: Q01DX009 (ip), vehicle: Klucel (hydroxypropylcellulose) (HPC)
[12] = dose: 200.0 mg/kg/injection, schedule: Q04DX003 (ip), vehicle: saline with Tween-80
[13] = dose: 400.0 mg/kg/injection, schedule: Q01DX001 (ip), vehicle: saline
[14] = dose: 400.0 mg/kg/injection, schedule: Q01DX009 (ip), vehicle: Klucel (hydroxypropylcellulose) (HPC)
[15] = dose: 400.0 mg/kg/injection, schedule: Q04DX003 (ip), vehicle: saline with Tween-80
[16] = dose: 50.0 mg/kg/injection, schedule: Q01DX009 (ip), vehicle: saline with Tween-80
[17] = dose: 100.0 mg/kg/injection, schedule: Q01DX009 (ip), vehicle: saline with Tween-80
[18] = dose: 200.0 mg/kg/injection, schedule: Q01DX009 (ip), vehicle: saline with Tween-80
[19] = dose: 50.0 mg/kg/injection, schedule: Q01DX001 (ip), vehicle: saline
[20] = dose: 100.0 mg/kg/injection, schedule: Q01DX001 (ip), vehicle: carboxymethylcellulose (CMC)
[21] = dose: 200.0 mg/kg/injection, schedule: Q01DX001 (ip), vehicle: carboxymethylcellulose (CMC)
[22] = dose: 400.0 mg/kg/injection, schedule: Q01DX001 (ip), vehicle: carboxymethylcellulose (CMC)
[23] = dose: 50.0 mg/kg/injection, schedule: Q01DX001 (ip), vehicle: carboxymethylcellulose (CMC)

Measured: T/C

CC(=O)N(C(C)C)C(C)C
inactive: dose: 0.75 mg/kg/injection, schedule: Q01DX001 (ip), vehicle: saline with Tween-80 100 % of control | dose: 1.5 mg/kg/injection, schedule: Q01DX001 (ip), vehicle: saline with Tween-80 97 % of control | dose: 3.0 mg/kg/injection, schedule: Q01DX001 (ip), vehicle: saline with Tween-80 102 % of control | dose: 3.12 mg/kg/injection, schedule: Q01DX001 (ip), vehicle: saline with Tween-80 98 % of control | dose: 12.5 mg/kg/injection, schedule: Q01DX001 (ip), vehicle: saline with Tween-80 100 % of control

N=Cc1c(O)[nH]c(=O)[nH]c1=O
inactive: [1] 95 % of control | [2] 97 % of control | [3] 90 % of control | [4] 93 % of control | [5] 91 % of control | [6] 95 % of control

O=C(O)C1CC2CCC1CC2 (stereo unspecified)
inactive: [7] 104 % of control | [8] 100 % of control | [9] 92 % of control | [10] 93 % of control | [11] 92 % of control | [12] 95 % of control | [13] 100 % of control | [14] 92 % of control | [15] 101 % of control

CCOCC(=O)CC1=CCCCC1
inactive: [16] 94 % of control | [17] 102 % of control | [18] 94 % of control

CC(C)(C1c2ccccc2NC(=O)c2ccccc21)[N+](=O)[O-] (stereo unspecified)
inactive: [9] 101 % of control | [12] 94 % of control

CCOC(=O)c1ccc(Nc2nnc(-c3c(OC)cc(OC)cc3OC)s2)cc1
inactive: dose: 100.0 mg/kg/injection, schedule: Q04DX002 (ip), vehicle: saline with Tween-80 93 % of control | dose: 200.0 mg/kg/injection, schedule: Q04DX002 (ip), vehicle: saline with Tween-80 104 % of control | dose: 400.0 mg/kg/injection, schedule: Q04DX002 (ip), vehicle: saline with Tween-80 101 % of control

C[N+](C)(C)Cc1ccc2ccccc2c1Br
inactive: [19] 97 % of control

Oc1cccnc1CN1CCOCC1
inactive: [17] 96 % of control | [9] 97 % of control | [18] 89 % of control | [12] 108 % of control | dose: 400.0 mg/kg/injection, schedule: Q01DX009 (ip), vehicle: saline with Tween-80 96 % of control | [15] 100 % of control

CC(C)N=Cc1ccccc1O.CC(C)N=Cc1ccccc1O.[Cu]
inactive: dose: 75.0 mg/kg/injection, schedule: Q01DX001 (ip), vehicle: other 113 % of control

CCC(=N\N=C(N)N)/C(C)=N\N=C(N)N
inactive: dose: 15.0 mg/kg/injection, schedule: Q01DX Z (ip), vehicle: saline 93 % of control | dose: 30.0 mg/kg/injection, schedule: Q01DX Z (ip), vehicle: saline 98 % of control | dose: 120.0 mg/kg/injection, schedule: Q01DX Z (ip), vehicle: saline 121 % of control

CCOC(=O)C1=NC(c2ccccc2)N(c2ccccc2)C1c1ccccc1 (stereo unspecified)
inactive: [19] 100 % of control | [7] 100 % of control | [10] 100 % of control | [13] 103 % of control

Cc1cc(NC(=O)Nc2ccc(F)cc2)no1
inactive: [20] 100 % of control | dose: 100.0 mg/kg/injection, schedule: Q01DX009 (ip), vehicle: carboxymethylcellulose (CMC) 97 % of control and 105 % of control | dose: 100.0 mg/kg/injection, schedule: Q04DX002 (ip), vehicle: carboxymethylcellulose (CMC) 104 % of control | [21] 97 % of control | dose: 200.0 mg/kg/injection, schedule: Q01DX009 (ip), vehicle: carboxymethylcellulose (CMC) 97 % of control | dose: 200.0 mg/kg/injection, schedule: Q04DX002 (ip), vehicle: carboxymethylcellulose (CMC) 92 % of control and 102 % of control | [22] 101 % of control | dose: 400.0 mg/kg/injection, schedule: Q01DX009 (ip), vehicle: carboxymethylcellulose (CMC) 94 % of control and 95 % of control | dose: 400.0 mg/kg/injection, schedule: Q04DX002 (ip), vehicle: carboxymethylcellulose (CMC) 92 % of control and 94 % of control

CCCCCCCCCCCC[As](=O)(O)O
inactive: [23] 96 % of control | [20] 93 % of control

CC1(C)C2CCC(=O)C1C2 (stereo unspecified)
inactive: [9] 101 % of control | [12] 96 % of control | [15] 96 % of control

c1ccc(C(=NC(c2ccccc2)c2ccccc2)c2ccccc2)cc1
inactive: [19] 98 % of control | [7] 98 % of control | [10] 96 % of control | [13] 98 % of control

Nc1nc(N)nc(Cc2nc(N)nc(N)n2)n1
inactive: [23] 90 % of control | [20] 87 % of control | [21] 92 % of control | [22] 95 % of control

COc1ccccc1NC(=O)NC1CCCCC1
inactive: [8] 100 % of control | [11] 100 % of control | [14] 102 % of control

OCC(O)c1ccccn1 (stereo unspecified)
inactive: [2] 107 % of control | [4] 94 % of control | [6] 94 % of control

CCCN1c2c(nc(N)[nH]c2=O)NCC1CNc1ccc(C(=O)NC(CCC(=O)O)C(=O)O)cc1 (stereo unspecified)
inactive: [1] 96 % of control | [2] 108 % of control | [3] 101 % of control | [4] 97 % of control | [5] 96 % of control | [6] 101 % of control

CC[CH2][Sn]([CH2]CC)([CH2]CC)[O][Sn]([CH2]CC)([CH2]CC)[CH2]CC
inactive: dose: 0.5 mg/kg/injection, schedule: Q01DX009 (ip), vehicle: saline 95 % of control | dose: 1.0 mg/kg/injection, schedule: Q01DX009 (ip), vehicle: saline 100 % of control | dose: 1.0 mg/kg/injection, schedule: Q04DX003 (ip), vehicle: saline with Tween-80 97 % of control | dose: 2.0 mg/kg/injection, schedule: Q01DX009 (ip), vehicle: saline 93 % of control | dose: 2.0 mg/kg/injection, schedule: Q04DX003 (ip), vehicle: saline with Tween-80 90 % of control

OCC12CCCCC1CC1(CC2)OCCO1 (stereo unspecified)
inactive: [16] 102 % of control | [17] 103 % of control | [1] 100 % of control | [9] 86 % of control | [2] 111 % of control | [18] 96 % of control | [3] 102 % of control | [12] 99 % of control | [4] 106 % of control | [5] 107 % of control | [6] 106 % of control

O=C(NC1=NCCS1)C(=O)NC1=NCCS1
inactive: [9] 105 % of control | [12] 100 % of control | [15] 97 % of control

Cc1cn(C2CC(O)C(CO)O2)c(=O)n(Cc2ccccc2)c1=O (stereo unspecified)
inactive: [19] 108 % of control | [7] 108 % of control | [10] 98 % of control | [13] 108 % of control

CN(C)c1ccc(/C=C/C(=O)c2ccc([N+](=O)[O-])cc2)c(Cl)c1
inactive: dose: 100.0 mg/kg/injection, schedule: Q04DX003 (ip), vehicle: Klucel (hydroxypropylcellulose) (HPC) 92 % of control | dose: 200.0 mg/kg/injection, schedule: Q04DX003 (ip), vehicle: Klucel (hydroxypropylcellulose) (HPC) 97 % of control | dose: 400.0 mg/kg/injection, schedule: Q04DX003 (ip), vehicle: Klucel (hydroxypropylcellulose) (HPC) 97 % of control

O=C(OCc1ccccc1CN1CCCCC1)c1cccc(Cl)c1
inactive: dose: 100.0 mg/kg/injection, schedule: Q04DX002 (ip), vehicle: Klucel (hydroxypropylcellulose) (HPC) 109 % of control | dose: 200.0 mg/kg/injection, schedule: Q04DX002 (ip), vehicle: Klucel (hydroxypropylcellulose) (HPC) 98 % of control | dose: 400.0 mg/kg/injection, schedule: Q04DX002 (ip), vehicle: Klucel (hydroxypropylcellulose) (HPC) 91 % of control

CCS(=O)(=O)CS(=O)(=O)Cc1ccccc1
inactive: dose: 75.0 mg/kg/injection, schedule: Q04DX003 (ip), vehicle: saline 94 % of control | dose: 150.0 mg/kg/injection, schedule: Q04DX003 (ip), vehicle: saline 95 % of control | dose: 300.0 mg/kg/injection, schedule: Q04DX003 (ip), vehicle: saline 95 % of control

C=C1C2CCC3C4(C)CC(OC5OC(CO)C(OS(=O)(=O)O)C(OS(=O)(=O)O)C5OC(=O)CCCC)CC(C(=O)O)(C(=O)O)C4CCC3(C2)C1O (stereo unspecified)
inactive: dose: 3.12 mg/kg/injection, schedule: Q04DX002 (ip), vehicle: saline 103 % of control | dose: 6.25 mg/kg/injection, schedule: Q04DX002 (ip), vehicle: saline 95 % of control
